Assay results: patent US20060141486A1, “Porous substrates and arrays comprising the same” (priority 2004, published 2006)
Blank lines part the entries; values can stand above or below the compound they belong to.

Key:
Test in all cases: GPCR array binding assay on flow-through microplate with GAPS porous substrate
[1] = target: T1, human muscarinic receptor subtype 1 (M1) (Homo sapiens, UniProt P11229)
T1 sequence (P11229 1-460): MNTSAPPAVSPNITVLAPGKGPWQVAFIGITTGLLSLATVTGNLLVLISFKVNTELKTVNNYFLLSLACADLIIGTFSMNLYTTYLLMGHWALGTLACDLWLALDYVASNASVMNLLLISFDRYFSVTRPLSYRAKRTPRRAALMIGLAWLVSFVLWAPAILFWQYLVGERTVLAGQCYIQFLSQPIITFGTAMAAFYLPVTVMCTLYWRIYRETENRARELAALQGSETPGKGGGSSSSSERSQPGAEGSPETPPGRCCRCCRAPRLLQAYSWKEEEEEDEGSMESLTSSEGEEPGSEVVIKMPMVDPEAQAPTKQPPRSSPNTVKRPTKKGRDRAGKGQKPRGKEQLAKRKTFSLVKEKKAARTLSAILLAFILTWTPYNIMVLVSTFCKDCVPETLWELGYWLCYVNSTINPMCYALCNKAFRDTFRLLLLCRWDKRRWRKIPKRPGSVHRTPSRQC
Description: (§1) 96 patches of silica-based porous substrate (GAPS™, Corning Inc.) were screen printed onto a 1737 glass support plate, and sintered at 695° C. The glass support was pre-fabricated by sand blasting to generate 192 microchannels. Under each porous patch, there are two microchannels which provide access to the porous patch from the opposite side of the glass support. Human muscarinic receptor subtype 1 (M1), delta opioid receptor subtype 2 (delta2), and muscarinic receptor subtype 2 (M2) were printed onto the GAPS™-porous substrate with a configuration such that each receptor was aligned in one column with four replicates (i.e., columns 1, 2 and 3 for M1, delta2 and M2 receptors, respectively; see FIG. 4A). […] After one hour incubation, a vacuum force was applied to remove the assay solution and the sequential washing solution before the array was finally being dried.

[2] = target: T2, human muscarinic receptor subtype 2 (M2) (Homo sapiens, UniProt P08172)
T2 sequence (P08172 1-466): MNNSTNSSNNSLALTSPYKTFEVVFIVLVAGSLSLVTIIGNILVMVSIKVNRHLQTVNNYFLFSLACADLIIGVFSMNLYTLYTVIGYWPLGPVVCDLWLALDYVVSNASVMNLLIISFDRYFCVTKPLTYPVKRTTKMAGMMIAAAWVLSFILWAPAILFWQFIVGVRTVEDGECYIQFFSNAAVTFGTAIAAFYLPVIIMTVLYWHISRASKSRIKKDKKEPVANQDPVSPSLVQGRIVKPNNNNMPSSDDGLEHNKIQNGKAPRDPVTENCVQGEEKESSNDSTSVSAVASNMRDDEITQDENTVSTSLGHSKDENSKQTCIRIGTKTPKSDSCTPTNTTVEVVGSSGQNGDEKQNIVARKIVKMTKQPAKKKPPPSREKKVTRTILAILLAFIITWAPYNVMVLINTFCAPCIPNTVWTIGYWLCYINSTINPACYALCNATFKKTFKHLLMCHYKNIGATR
Description: as §1

[3] = target: human delta opioid receptor subtype 2 (delta2) (Homo sapiens, UniProt P41143); settings: 4 nM Cy5-naltrexone in cocktail of labeled ligands, one hour incubation, FIG. 4A
Sequence of human delta opioid receptor subtype 2 (delta2) (P41143 whole entry): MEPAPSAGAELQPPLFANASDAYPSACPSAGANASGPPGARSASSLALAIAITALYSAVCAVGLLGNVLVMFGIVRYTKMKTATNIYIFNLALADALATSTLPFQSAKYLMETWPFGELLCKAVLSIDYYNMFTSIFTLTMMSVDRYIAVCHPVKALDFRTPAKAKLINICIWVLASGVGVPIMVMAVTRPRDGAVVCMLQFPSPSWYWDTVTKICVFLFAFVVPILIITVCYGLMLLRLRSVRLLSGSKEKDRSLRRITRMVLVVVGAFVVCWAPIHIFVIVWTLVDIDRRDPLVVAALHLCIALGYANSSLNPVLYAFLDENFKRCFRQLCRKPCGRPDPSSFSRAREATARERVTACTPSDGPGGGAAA
Description: as §1

[4] = unlabeled telenzepine 2 μM (with naltrexone 4 μM), FIG. 4B
[5] = 2 nM Cy3B-telenzepine in cocktail of labeled ligands, one hour incubation, FIG. 4A

inhibition of Cy3B-telenzepine binding to M1 receptor by unlabeled compound [1, 4]: inhibited
inhibition of Cy3B-telenzepine binding to M2 receptor by unlabeled compound [2, 4]: inhibited
Compound: Cc1scc2c1N(C(=O)CN1CCN(C)CC1)c1ccccc1NC2=O [telenzepine]

Compound: Cy3B-telenzepine
binding of labeled ligand to M1 receptor microspots (fluorescence) [1, 5]: strong binding
binding of labeled ligand to M2 receptor microspots (fluorescence) [2, 5]: Weak binding signals

Compound: Cy5-naltrexone
binding of labeled ligand to delta2 receptor microspots (fluorescence) [3]: strong binding
